The text below walks through data of paper PMC11377810, “A Gaussia luciferase reporter assay for the evaluation of coronavirus Nsp5/3CLpro activity” (Scientific Reports, 2024).

The conditions of data set [1]: in vivo, cited from earlier work.
Data set [2] deals with T1, SARS-CoV-2 Nsp5 (Severe acute respiratory syndrome coronavirus 2, UniProt P0DTD1).
Data set [3] deals with COVID-19. Conditions: cited from earlier work.
The target of data set [4] is T1, SARS-CoV-2 Nsp5. Description: cell-based.
Data set [5] concerns HEK293T reporter cells. Description: MTT assay of cell metabolic activity of reporter cells. Particulars: at the active concentrations ≥ 20 µM, Fig. 4c. On the technique in general: Tetrazolium assays rely on reduction of a dye to a coloured formazan, in cell work by metabolically active cells.
Data set [6] concerns HEK293T reporter cells.

Consider `COc1cccc2[nH]c(C(=O)N[C@@H](CC(C)C)C(=O)N[C@@H](C[C@@H]3CCNC3=O)C(=O)COP(=O)(O)O)cc12` [Lufotrelvir], for which, in data set [1] (po), the oral bioavailability entry is “low”. For the same compound, the systemic clearance result in data set [1] is given as “fast”.
As to `Cc1cccc(C)c1OCC(=O)N[C@@H](Cc1ccccc1)[C@@H](O)C[C@H](Cc1ccccc1)NC(=O)[C@H](C(C)C)N1CCCNC1=O` [Lopinavir], in data set [2], the “concentrations that significantly decreased the Gaussia luciferase signal (lowest significantly active dose)” value was no less than 20 µM; the “effective and non-cytotoxic concentration range” value lay in the range of 8 to 64 µM. Also, the “benefit in the treatment of COVID-19” value in data set [3] (COVID-19 patients, clinical trials) is “little to no benefit”. Also, the “benefit in COVID-19 patients” value in data set [3] (multiple clinical trials) is reported as “no significant benefit”. Moreover, in data set [4] (IC50, inhibition of Nsp5 reporter (Gaussia luciferase) activity), half-maximal inhibition (IC50) required 21 µM. Half-maximal inhibition in data set [4] (IC50, inhibition of Nsp5 reporter activity, re-evaluated at lower nontoxic concentrations, additional concentrations, 8–64 µM range (Fig. 4e)) (IC50) required 12 µM. Also, the “cytotoxicity (MTT)” value in data set [5] is recorded as “cytotoxic at all of the tested active concentrations”.
Consider `COc1cccc2[nH]c(C(=O)N[C@@H](CC(C)C)C(=O)N[C@@H](C[C@@H]3CCNC3=O)C(=O)CO)cc12` [PF-00835231], for which the non-cytotoxic concentrations in data set [6] is no more than 50 µM.
